Measured values: patent publication US8790719B2, “Phytocannabinoids in the treatment of cancer” (GW Pharma Limited, priority 2010, dated 2014)
Where two headings read alike, the source gives them in different places.

Experiments:
[1] = tested on: recurrent glioblastoma multiforme; details: nine patients, THC intra-tumourally; 95% confidence interval: 15-33; cited from earlier work
[2] = tested on: human glioma xenograft tumours; assay: Human glioma xenograft tumour volume; type: in vivo; set-up: unit not given here
Protocol: The phytocannabinoids were also tested with the TMZ as is detailed in Table 13.2 below.

[3] = tested on: U87 glioma cells; assay: Viability of U87 glioma cells (MTT assay), THC, CBD, TMZ alone and combined; type: cell-based, human
[4] = tested on: MDA-MB-231 breast cancer cell line; assay: Cell viability of breast cancer cells (Alamar blue assay); type: cell-based; details: Homo sapiens, 72 hours
Protocol: Cells were seeded in presence of FBS in 6 wells multiwell and treated with increased concentrations of compounds for 72 hours. Cell viability was assessed by Alamar blue staining.
Isolated phytocannabinoids were tested on the MDA-MB-231 breast cancer cell line in order to determine whether phytocannabinoids were effective in other types of cancer other than prostate cancer. The different isolated phytocannabinoids chosen for this experiment were: CBGA, CBDA, CBDV, CBD, THCV and THC.

[5] = tested on: DU-145; assay: Cell vitality (MTT assay), DU-145; type: cell-based; details: Homo sapiens, read-out: IC50 on cell vitality
Protocol: (§1) Cells were seeded in presence of FBS in 6 wells multiwell with a density of 8×10^4 cells/well (DU-145) or 1×10^5 cells/well (LNCaP). After 7 hours, cells were starved of dihydrotestosterone (DHT) for 15 hours and treated with increased concentrations of compounds for 24 or 48 hours (absence of serum was maintained during the treatments). Cell viability was assessed by MTT staining.
(§2) Phytocannabinoid BDS and their respective isolated phytocannabinoids were tested in both the hormone-insensitive (DU-145) prostate cancer cells and hormone-sensitive (LNCaP) prostate cancer cells. Three different phytocannabinoids were chosen for this experiment: CBG BDS and isolated compound, CBC BDS and isolated compound and CBD BDS and isolated compound.
(§3) The experiment was repeated in the hormone-insensitive (DU-145) prostate cancer cells and hormone-sensitive (LNCaP) prostate cancer cells that had not been starved of DHT. Here just the CBG BDS and isolated CBG are illustrated in Table 7.2 below.

[6] = tested on: Glioma cells; assay: Human glioma cell vitality (MTT assay); type: cell-based; details: read-out: IC50 on glioma cell vitality
Protocol: Cells were seeded in presence of FBS in 6 wells multiwell with a density of 8×10^4 cells/well. Glioma cells were treated with increased concentrations of compounds and cell viability was assessed by MTT staining.
CBD BDS and isolated CBD, CBG and CBDV were tested.

[7] = tested on: Aberrant crypt focus (ACF), polyps and tumours; assay: Colon carcinogenesis in the mouse induced by azoxymethane; type: in vivo; details: i.p. three times per week for three months; FIG. 5 c), FIG. 6 c)
Description: Aberrant crypt focus (ACF), polyps and tumours were induced in the mouse by the carcinogenic substance azoxymethane. The phytocannabinoids were given (i.p.) to the mice three times per week for a period of three months. The COX-2 inhibitor celecoxib was used as a positive control.

[8] = tested on: subcutaneously implanted U87 human glioma cells; details: s.c., 0.5 mg/mouse; cited from earlier work
[9] = molecular target: T1, GPR55 (Homo sapiens, UniProt Q9Y2T6); assay: ERK Alphascreen assay using GPR55-HEK cells; type: cell-based
T1 construct: expressed in transfected cells; host or cells: HEK cells (GPR55-HEK)
Description: An ERK Alphascreen assay was undertaken using GPR55-HEK cells.

[10] = tested on: LNCaP; assay: Cell vitality (MTT assay), LNCaP; type: cell-based; details: Homo sapiens, read-out: IC50 on cell vitality
Protocol: as §1, §2, §3

[11] = tested on: hormone-sensitive prostate cancer cell line (LNCaP); assay: Subcutaneous xenograft model, hormone-sensitive prostate cancer (LNCaP); type: in vivo, mice; details: taxotere 5 mg/kg i.v. weekly, alone
Protocol: Cancer cells were maintained in vitro in an appropriate culture medium and were harvested, washed in culture medium and re-suspended in matrigel for ready for in vivo administration. 1-2×10^7 cells in 200 μl were injected subcutaneously into the left flank of mice. The mice were anaesthetised and a 0.5 mg 5-alpha-dihydrotestosterone pellet (21-day release) implanted subcutaneously into the scruff of each mouse to encourage tumour growth, and the wound was closed.
Once the implanted tumour volume reached between 100-200 mm (2-3 weeks) mice were allocated to their treatment groups. Treatment commenced on Day 17. The phytocannabinoid BDS was administered i.p. once daily at doses of 1, 10 & 100 mg/kg cannabinoid BDS for a further 25 days.
In a further experiment the chemotherapeutic agent taxotere (5 mg/kg) i.v. was administered weekly, alone or in combination with 100 mg/kg phytocannabinoid BDS.
Mice were evaluated daily by an experienced technician for 4-5 weeks. Tumour dimensions were recorded at day 7 (calliper measurement of length and width and tumour cross-sectional area and volume calculated) and recorded three times weekly and body weight measured weekly.

T1 sequence (Q9Y2T6 whole entry, species assumed): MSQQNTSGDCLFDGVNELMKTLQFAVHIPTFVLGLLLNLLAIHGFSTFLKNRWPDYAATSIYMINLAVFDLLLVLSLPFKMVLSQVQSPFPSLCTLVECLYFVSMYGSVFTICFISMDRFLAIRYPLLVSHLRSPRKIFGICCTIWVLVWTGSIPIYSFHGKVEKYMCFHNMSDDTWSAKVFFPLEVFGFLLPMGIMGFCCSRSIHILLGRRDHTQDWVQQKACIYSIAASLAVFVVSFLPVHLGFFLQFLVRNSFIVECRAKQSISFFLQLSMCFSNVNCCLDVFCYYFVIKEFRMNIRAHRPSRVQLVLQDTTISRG

SMILES	Median survival from the beginning of cannabinoid administration [1] [weeks]	Tumour volume (increase from day 1) ([2]; dose level 3.7 mg/kg (each))	Tumour volume (increase from day 1) ([2]; dose level 7.5 mg/kg (each))	Tumour volume (increase from day 1) ([2]; dose level 15.0 mg/kg)	Cell Viability (%) ([3]; cannabinoid 1 μM (each), Table 12.2)	Cell Viability (%) ([3]; dose level 0.7 μM (each))	Cell Viability (%) ([3]; dose level 0.9 μM (each))	Cell Viability (%) ([3]; dose level 1.2 μM (each))	IC50 [4] [µM]	IC50 ([5]; DU-145, 24 h) [µM]	IC50 ([5]; DU-145, 48 h) [µM]	IC50 [6] [µM]	numbers of tumours per animal [7]	growth of subcutaneously implanted U87 human glioma cells [8]	Effect at GPR55 [9]	IC50 ([10]; 24 h) [µM]	IC50 ([10]; 48 h) [µM]	growth rate and terminal tumour volume [11]
CCCCCc1cc(O)c2c(c1)OC(C)(C)[C@@H]1CCC(C)=C[C@@H]21 [THC, Tetrahydrocannabinol]	24	8.7	8.5	5.8	115	100	92	80	> 10	–	–	–	–	–	–	–	–	–
C=C(C)[C@@H]1CCC(C)=C[C@H]1c1c(O)cc(CCCCC)cc1O [CBD, Cannabidiol]	–	9.1	8.9	7.6	–	–	–	–	5	5.5	4.9	8.92	significantly reduced the numbers of tumours per animal	significantly inhibited the growth	Antagonist	5.3	5.6	–
CC(=O)O[C@@]12CO[C@@H]1C[C@H](O)[C@@]1(C)C(=O)[C@H](O)C3=C(C)[C@@H](OC(=O)[C@H](O)[C@@H](NC(=O)OC(C)(C)C)c4ccccc4)C[C@@](O)([C@@H](OC(=O)c4ccccc4)[C@H]21)C3(C)C [taxotere]	–	–	–	–	–	–	–	–	–	–	–	–	–	–	–	–	–	significantly inhibited both growth rate and terminal tumour volume
